In ChEMBL document CHEMBL1909294, “Translating clinical findings into knowledge in drug safety evaluation--drug induced liver injury prediction system (DILIps)” (PLoS Comput Biol, 2011):

Key:
Hepatotoxicity [1] = tested on: Hepatotoxicity;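 as to HepSE elevated liver function tests: hepatic side effect score for raised liver function tests, as recorded in the DILIps training set used for predicting drug-induced liver injury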; as to HepSE hepatic failure: call rule not given here;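 as to HepSE hepatitis: Hepatitis-related hepatic side effect score taken from the training data of DILIps, a prediction system for drug-induced liver injury; call rule not given here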;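 as to HepSE hepatomegaly: hepatic side effect score for hepatomegaly, taken from the training set of the DILIps drug-induced liver injury prediction system; call rule not given here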;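 as to HepSE jaundice: Jaundice-related hepatic side-effect score drawn from the training data of the DILIps (drug-induced liver injury prediction system); call rule not given here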; as to HepSE liver disease: call rule not given here;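 as to HepSE liver fatty: hepatic side effect score for fatty liver, taken from the DILIps training set for predicting drug-induced liver injury; call rule not given here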
Hepatotoxicity [2] = tested on: Hepatotoxicity; remark: listed apart in the source;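 as to HepSE elevated liver function tests: hepatic side effect score for raised liver function tests, as recorded in the DILIps training set used for predicting drug-induced liver injury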; as to HepSE hepatic failure: call rule not given here;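 as to HepSE hepatitis: Hepatitis-related hepatic side effect score taken from the training data of DILIps, a prediction system for drug-induced liver injury; call rule not given here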;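 as to HepSE hepatomegaly: hepatic side effect score for hepatomegaly, taken from the training set of the DILIps drug-induced liver injury prediction system; call rule not given here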;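 as to HepSE jaundice: Jaundice-related hepatic side-effect score drawn from the training data of the DILIps (drug-induced liver injury prediction system); call rule not given here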;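 as to HepSE liver fatty: hepatic side effect score for fatty liver, taken from the DILIps training set for predicting drug-induced liver injury; call rule not given here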
Hepatotoxicity [3] = tested on: Hepatotoxicity; remark: listed apart in the source;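 as to HepSE elevated liver function tests: hepatic side effect score for raised liver function tests, as recorded in the DILIps training set used for predicting drug-induced liver injury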; as to HepSE hepatic failure: call rule not given here;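 as to HepSE hepatitis: Hepatitis-related hepatic side effect score taken from the training data of DILIps, a prediction system for drug-induced liver injury; call rule not given here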;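 as to HepSE hepatomegaly: hepatic side effect score for hepatomegaly, taken from the training set of the DILIps drug-induced liver injury prediction system; call rule not given here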;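 as to HepSE jaundice: Jaundice-related hepatic side-effect score drawn from the training data of the DILIps (drug-induced liver injury prediction system); call rule not given here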;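 as to HepSE liver fatty: hepatic side effect score for fatty liver, taken from the DILIps training set for predicting drug-induced liver injury; call rule not given here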
Hepatotoxicity [4] = tested on: Hepatotoxicity; remark: listed apart in the source;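 as to HepSE elevated liver function tests: hepatic side effect score for raised liver function tests, as recorded in the DILIps training set used for predicting drug-induced liver injury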; as to HepSE hepatic failure: call rule not given here;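 as to HepSE hepatitis: Hepatitis-related hepatic side effect score taken from the training data of DILIps, a prediction system for drug-induced liver injury; call rule not given here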;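 as to HepSE hepatomegaly: hepatic side effect score for hepatomegaly, taken from the training set of the DILIps drug-induced liver injury prediction system; call rule not given here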;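 as to HepSE jaundice: Jaundice-related hepatic side-effect score drawn from the training data of the DILIps (drug-induced liver injury prediction system); call rule not given here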;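 as to HepSE liver fatty: hepatic side effect score for fatty liver, taken from the DILIps training set for predicting drug-induced liver injury; call rule not given here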
Hepatotoxicity [5] = tested on: Hepatotoxicity; remark: listed apart in the source; as to HepSE hepatic failure: call rule not given here
Hepatotoxicity [6] = tested on: Hepatotoxicity; remark: listed apart in the source; as to HepSE hepatic failure: call rule not given here
Hepatotoxicity [7] = tested on: Hepatotoxicity; remark: listed apart in the source
Hepatotoxicity [8] = tested on: Hepatotoxicity; remark: listed apart in the source
Hepatotoxicity [9] = tested on: Hepatotoxicity; remark: listed apart in the source
Hepatotoxicity [10] = tested on: Hepatotoxicity; remark: listed apart in the source
Hepatotoxicity [11] = tested on: Hepatotoxicity; remark: listed apart in the source
Hepatotoxicity [12] = tested on: Hepatotoxicity; remark: listed apart in the source
Hepatotoxicity [13] = tested on: Hepatotoxicity; remark: listed apart in the source
Hepatotoxicity [14] = tested on: Hepatotoxicity; remark: listed apart in the source

SMILES: CC(C)NCC(O)COc1ccc(COCCOC(C)C)cc1 (configuration not stated) [BISOPROLOL]
- HepSE_hepatitis (Hepatotoxicity [1]): 0
- HepSE_hepatic failure (Hepatotoxicity [2]): 0
- HepSE_bilirubinemia (Hepatotoxicity [3]): 0
- HepSE_hepatomegaly (Hepatotoxicity [4]): 0
- HepSE_jaundice (Hepatotoxicity [5]): 0
- HepSE_liver fatty (Hepatotoxicity [6]): 0
- HepSE_elevated liver function tests (Hepatotoxicity [7]): 0
- HepSE_liver disease (Hepatotoxicity [8]): 0
- HepSE_Combined Scores (Hepatotoxicity [9]): 0
- HepSE_hepatic necrosis (Hepatotoxicity [10]): 0
- HepSE_cholecystitis (Hepatotoxicity [11]): 0
- HepSE_liver function tests abnormal (Hepatotoxicity [12]): 0
- HepSE_cirrhosis (Hepatotoxicity [13]): 0
- HepSE_cholelithiasis (Hepatotoxicity [14]): 0

SMILES: CO/N=C(\C(=O)N[C@@H]1C(=O)N2C(C(=O)[O-])=C(C[N+]3(C)CCCC3)CS[C@H]12)c1csc(N)n1
- HepSE_hepatitis (Hepatotoxicity [1]): 0
- HepSE_hepatic failure (Hepatotoxicity [2]): 1
- HepSE_bilirubinemia (Hepatotoxicity [3]): 0
- HepSE_hepatomegaly (Hepatotoxicity [4]): 0
- HepSE_jaundice (Hepatotoxicity [5]): 0
- HepSE_liver fatty (Hepatotoxicity [6]): 0
- HepSE_elevated liver function tests (Hepatotoxicity [7]): 0
- HepSE_liver disease (Hepatotoxicity [8]): 0
- HepSE_Combined Scores (Hepatotoxicity [9]): 1
- HepSE_hepatic necrosis (Hepatotoxicity [10]): 0
- HepSE_cholecystitis (Hepatotoxicity [11]): 0
- HepSE_liver function tests abnormal (Hepatotoxicity [12]): 0
- HepSE_cirrhosis (Hepatotoxicity [13]): 0
- HepSE_cholelithiasis (Hepatotoxicity [14]): 0

SMILES: NNC(=O)c1ccncc1 [ISONIAZID]
- HepSE_hepatitis (Hepatotoxicity [1]): 0
- HepSE_hepatic failure (Hepatotoxicity [2]): 0
- HepSE_bilirubinemia (Hepatotoxicity [3]): 1
- HepSE_hepatomegaly (Hepatotoxicity [4]): 0
- HepSE_jaundice (Hepatotoxicity [5]): 1
- HepSE_liver fatty (Hepatotoxicity [6]): 0
- HepSE_elevated liver function tests (Hepatotoxicity [7]): 0
- HepSE_liver disease (Hepatotoxicity [8]): 0
- HepSE_Combined Scores (Hepatotoxicity [9]): 2
- HepSE_hepatic necrosis (Hepatotoxicity [10]): 0
- HepSE_cholecystitis (Hepatotoxicity [11]): 0
- HepSE_liver function tests abnormal (Hepatotoxicity [12]): 0
- HepSE_cirrhosis (Hepatotoxicity [13]): 0
- HepSE_cholelithiasis (Hepatotoxicity [14]): 0

SMILES: CC(=O)O [ACETIC ACID]
- HepSE_hepatitis (Hepatotoxicity [1]; Liver): 0
- HepSE_hepatic failure (Hepatotoxicity [2]; Liver): 0
- HepSE_bilirubinemia (Hepatotoxicity [3]; Liver): 0
- HepSE_hepatomegaly (Hepatotoxicity [4]; Liver): 0
- HepSE_jaundice (Hepatotoxicity [5]; Liver): 0
- HepSE_liver fatty (Hepatotoxicity [6]; Liver): 0
- HepSE_elevated liver function tests (Hepatotoxicity [7]; Liver): 0
- HepSE_liver disease (Hepatotoxicity [8]; Liver): 0
- HepSE_Combined Scores (Hepatotoxicity [9]; Liver): 0
- HepSE_hepatic necrosis (Hepatotoxicity [10]; Liver): 0
- HepSE_cholecystitis (Hepatotoxicity [11]; Liver): 0
- HepSE_liver function tests abnormal (Hepatotoxicity [12]; Liver): 0
- HepSE_cirrhosis (Hepatotoxicity [13]; Liver): 0
- HepSE_cholelithiasis (Hepatotoxicity [14]; Liver): 0

SMILES: CC(NC(C)(C)C)C(=O)c1cccc(Cl)c1 (configuration not stated) [BUPROPION]
- HepSE_hepatitis (Hepatotoxicity [1]): 1
- HepSE_hepatic failure (Hepatotoxicity [2]): 0
- HepSE_bilirubinemia (Hepatotoxicity [3]): 0
- HepSE_hepatomegaly (Hepatotoxicity [4]): 0
- HepSE_jaundice (Hepatotoxicity [5]): 1
- HepSE_liver fatty (Hepatotoxicity [6]): 0
- HepSE_elevated liver function tests (Hepatotoxicity [7]): 0
- HepSE_liver disease (Hepatotoxicity [8]): 0
- HepSE_Combined Scores (Hepatotoxicity [9]): 2
- HepSE_hepatic necrosis (Hepatotoxicity [10]): 0
- HepSE_cholecystitis (Hepatotoxicity [11]): 0
- HepSE_liver function tests abnormal (Hepatotoxicity [12]): 0
- HepSE_cirrhosis (Hepatotoxicity [13]): 0
- HepSE_cholelithiasis (Hepatotoxicity [14]): 0

SMILES: CN(Cc1ccc(C(C)(C)C)cc1)Cc1cccc2ccccc12 [BUTENAFINE]
- HepSE_hepatitis (Hepatotoxicity [1]): 0
- HepSE_hepatic failure (Hepatotoxicity [2]): 0
- HepSE_bilirubinemia (Hepatotoxicity [3]): 0
- HepSE_hepatomegaly (Hepatotoxicity [4]): 0
- HepSE_jaundice (Hepatotoxicity [5]): 0
- HepSE_liver fatty (Hepatotoxicity [6]): 0
- HepSE_elevated liver function tests (Hepatotoxicity [7]): 0
- HepSE_liver disease (Hepatotoxicity [8]): 0
- HepSE_Combined Scores (Hepatotoxicity [9]): 0
- HepSE_hepatic necrosis (Hepatotoxicity [10]): 0
- HepSE_cholecystitis (Hepatotoxicity [11]): 0
- HepSE_liver function tests abnormal (Hepatotoxicity [12]): 0
- HepSE_cirrhosis (Hepatotoxicity [13]): 0
- HepSE_cholelithiasis (Hepatotoxicity [14]): 0

SMILES: CC1=C(/C=C/C(C)=C/C=C/C(C)=C/CO)C(C)(C)CCC1 [RETINOL]
- HepSE_hepatitis (Hepatotoxicity [1]; Liver): 0
- HepSE_hepatic failure (Hepatotoxicity [2]; Liver): 0
- HepSE_bilirubinemia (Hepatotoxicity [3]; Liver): 0
- HepSE_hepatomegaly (Hepatotoxicity [4]; Liver): 0
- HepSE_jaundice (Hepatotoxicity [5]; Liver): 0
- HepSE_liver fatty (Hepatotoxicity [6]; Liver): 0
- HepSE_elevated liver function tests (Hepatotoxicity [7]; Liver): 0
- HepSE_liver disease (Hepatotoxicity [8]; Liver): 0
- HepSE_Combined Scores (Hepatotoxicity [9]; Liver): 0
- HepSE_hepatic necrosis (Hepatotoxicity [10]; Liver): 0
- HepSE_cholecystitis (Hepatotoxicity [11]; Liver): 0
- HepSE_liver function tests abnormal (Hepatotoxicity [12]; Liver): 0
- HepSE_cirrhosis (Hepatotoxicity [13]; Liver): 0
- HepSE_cholelithiasis (Hepatotoxicity [14]; Liver): 0

SMILES: Clc1ccc2c(c1)C(N1CCNCC1)=Nc1ccccc1O2 [AMOXAPINE]
- HepSE_hepatitis (Hepatotoxicity [1]): 1
- HepSE_hepatic failure (Hepatotoxicity [2]): 0
- HepSE_bilirubinemia (Hepatotoxicity [3]): 0
- HepSE_hepatomegaly (Hepatotoxicity [4]): 0
- HepSE_jaundice (Hepatotoxicity [5]): 1
- HepSE_liver fatty (Hepatotoxicity [6]): 0
- HepSE_elevated liver function tests (Hepatotoxicity [7]): 0
- HepSE_liver disease (Hepatotoxicity [8]): 0
- HepSE_Combined Scores (Hepatotoxicity [9]): 2
- HepSE_hepatic necrosis (Hepatotoxicity [10]): 0
- HepSE_cholecystitis (Hepatotoxicity [11]): 0
- HepSE_liver function tests abnormal (Hepatotoxicity [12]): 0
- HepSE_cirrhosis (Hepatotoxicity [13]): 0
- HepSE_cholelithiasis (Hepatotoxicity [14]): 0
